From ChEMBL document CHEMBL1127105, “Adenosine-2-monophosphate derivatives: Structural requirements as substrates for inositol monophosphatase” (Bioorg Med Chem Lett, 1993) come the findings set out here.

Assay [1] concerns the target T1, Inositol monophosphatase 1 (Bos taurus, UniProt P20456).
T1 sequence (P20456 whole entry): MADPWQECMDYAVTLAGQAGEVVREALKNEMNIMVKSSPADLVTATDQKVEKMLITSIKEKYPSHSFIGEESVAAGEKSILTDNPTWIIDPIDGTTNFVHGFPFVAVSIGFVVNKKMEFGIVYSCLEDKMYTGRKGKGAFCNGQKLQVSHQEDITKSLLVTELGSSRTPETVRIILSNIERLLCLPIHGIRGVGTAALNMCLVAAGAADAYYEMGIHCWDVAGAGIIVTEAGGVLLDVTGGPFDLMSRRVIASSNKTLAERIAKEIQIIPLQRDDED
As to the kind of experiment: Tested for the inhibitory activity against bovine inositol monophosphatase by measuring concentration inhibiting the production of [14C]inositol from racemic inositol monophosphate (1) containing [14C]-1.

Assay [2] addresses T2, Inositol monophosphatase 1 (Bos taurus) (UniProt P20456).
T2 sequence (whole entry): T1 sequence (P20456 whole entry)
As to the kind of experiment: Activity against the bovine inositol monophosphatase was determined by rate of release of inorganic phosphate at 1 mM substrate concentration, 1 mM of inositol-1-phosphate (1).

In general, IC50 refers to the concentration at which inhibition is half-maximal. With `O=P(O)(O)O[C@H]1CC[C@H](CO)[C@H]1O`, 2.1 mM corresponded to half-maximal inhibition in assay [1] (IC50). This compound showed an Activity in assay [2] of less than 0.05.

Take `O=P(O)(O)[C@H]1CC[C@H](O)C[C@H]1O`: it took 0.007 mM to reach half-maximal inhibition in assay [1] (IC50).

Compound `O=P(O)(O)O[C@H]1CC[C@@H](CO)[C@H]1O` displayed an IC50 in assay [1] of 0.31 mM. In assay [2], this compound came in with an Activity of less than 0.05.

In turn, `O=P(O)(O)O[C@H]1COC[C@H]1O` displayed a concentration for half-maximal inhibition (IC50) in assay [1] of 3.6 mM. In assay [2], this compound had an Activity of 0.53.

In assay [1], `O=P(O)(O)O[C@H]1CO[C@H](CO)[C@H]1O` gave an IC50 of 2.9 mM. The Activity in assay [2] was determined as 0.65.

Turning to `O=P(O)(O)O[C@@H]1CO[C@@H](CO)[C@@H]1O`, the IC50 in assay [1] came to 1.8 mM. In addition, the Activity in assay [2] amounted to 0.53.

Compound `O=P(O)(O)O[C@H]1CCC[C@H]1O` gave a concentration for half-maximal inhibition (IC50) in assay [1] of 5 mM.

`Nc1ncnc2c1ncn2[C@@H]1O[C@H](CO)[C@@H](O)[C@H]1OP(=O)(O)O`: in assay [1], the IC50 was found to be 1.3 mM. Besides, the Activity in assay [2] amounted to 0.48.
